Where “and” joins values, the source holds several entries; their conditions need not be identical. Equal values may be shown once. Toxic doses and inconclusive results are not listed.
Test system: BDF1 mice, P388/VCR leukemia ip, median survival T/C
Assay: NCI In Vivo Anticancer Drug Screen. Data for tumor model P388 Leukemia resistant to Vincristine; NSC 67574 (intraperitoneal) in B6D2F1 (BDF1) mice
Settings: endpoint: median survival time, higher = longer survival
Description: The antitumor activity of compounds was measured in mice bearing transplantable tumors. Survival or tumor size were measured and the results are expressed as the measurement made in the treated group (T) divided by the measurement made in the vehicle treated control group (C). The tumor model used in this assay is P388 Leukemia resistant to Vincristine; NSC 67574 (intraperitoneal) in B6D2F1 (BDF1) mice

[1] = dose: 20.0 mg/kg/injection, schedule: Q01DX010 (ip), vehicle: saline
[2] = dose: 3.13 mg/kg/injection, schedule: Q01DX010 (ip), vehicle: saline
[3] = dose: 6.25 mg/kg/injection, schedule: Q01DX010 (ip), vehicle: saline
[4] = dose: 12.5 mg/kg/injection, schedule: Q01DX010 (sc), vehicle: steriod suspending solution
[5] = dose: 25.0 mg/kg/injection, schedule: Q01DX010 (sc), vehicle: steriod suspending solution
[6] = dose: 50.0 mg/kg/injection, schedule: Q01DX010 (sc), vehicle: steriod suspending solution
[7] = dose: 100.0 mg/kg/injection, schedule: Q01DX010 (sc), vehicle: steriod suspending solution
[8] = dose: 250.0 mg/kg/injection, schedule: Q01DX010 (ip), vehicle: saline
[9] = dose: 10.0 mg/kg/injection, schedule: Q01DX010 (ip), vehicle: saline

SMILES: CNc1nc(Nc2ccc(C3=NCCN3)cc2)nc(Nc2ccc(C3=NCCN3)cc2)n1
- T/C [1]: 116 % of control
- T/C (dose: 30.0 mg/kg/injection, schedule: Q01DX010 (ip), vehicle: saline): 108 % of control
- T/C (dose: 45.0 mg/kg/injection, schedule: Q01DX010 (ip), vehicle: saline): 91 % of control

SMILES: COc1cc(NS(C)(=O)=O)ccc1Nc1c2ccccc2nc2ccccc12
- T/C (dose: 3.6 mg/kg/injection, schedule: Q04DX003 (ip), vehicle: clinical formulation): 188 % of control
- T/C (dose: 3.6 mg/kg/injection, schedule: Q04DX003 (ip), vehicle: other): 122 % of control
- T/C (dose: 6.0 mg/kg/injection, schedule: Q04DX003 (ip), vehicle: clinical formulation): 191 % of control
- T/C (dose: 10.0 mg/kg/injection, schedule: Q04DX003 (ip), vehicle: clinical formulation): 193 % of control
- T/C (dose: 10.0 mg/kg/injection, schedule: Q04DX003 (ip), vehicle: other): 153 % of control
- T/C (dose: 16.7 mg/kg/injection, schedule: Q04DX003 (ip), vehicle: clinical formulation): 107 % of control
- T/C (dose: 16.7 mg/kg/injection, schedule: Q04DX003 (ip), vehicle: other): 88 % of control

SMILES: C[C@H]1C(=O)O[C@@H]2CCN3CC=C(COC(=O)[C@](C)(O)[C@@]1(C)O)[C@H]23
- T/C (dose: 1.56 mg/kg/injection, schedule: Q01DX010 (ip), vehicle: saline): 108 % of control
- T/C [2]: 112 % of control
- T/C [3]: 91 % of control
- T/C (dose: 12.5 mg/kg/injection, schedule: Q01DX010 (ip), vehicle: saline): 100 % of control

SMILES: O=C(Nc1ccc(NC(=O)Nc2cccc(C3=NCCN3)c2)cc1)Nc1cccc(C2=NCCN2)c1
- T/C (dose: 120.0 mg/kg/injection, schedule: Q01DX010 (ip), vehicle: saline): 162 % of control and 183 % of control
- T/C (dose: 480.0 mg/kg/injection, schedule: Q01DX010 (ip), vehicle: saline): 100 % of control

SMILES: CC(=O)O[C@]1(C(C)=O)CC[C@H]2[C@@H]3C[C@H](C)C4=CC(=O)C=C[C@]4(C)[C@@]3(F)[C@@H](O)C[C@@]21C
- T/C [4]: 103 % of control
- T/C [5]: 116 % of control
- T/C [6]: 110 % of control
- T/C [7]: 113 % of control

SMILES: O=C(Nc1ccc(NC(=O)Nc2ccc(C3=NCCN3)cc2)cc1)Nc1ccc(C2=NCCN2)cc1
- T/C [8]: 150 % of control
- T/C (dose: 375.0 mg/kg/injection, schedule: Q01DX010 (ip), vehicle: saline): 154 % of control

SMILES: NC(Cc1ccc(N(CCCl)CCCl)cc1)C(=O)O (stereo not drawn)
- T/C (dose: 1.25 mg/kg/injection, schedule: Q01DX010 (ip), vehicle: saline): 170 % of control
- T/C (dose: 2.5 mg/kg/injection, schedule: Q01DX010 (ip), vehicle: saline): 190 % of control and 191 % of control
- T/C (dose: 5.0 mg/kg/injection, schedule: Q01DX010 (ip), vehicle: saline): 300 % of control
- T/C [9]: 86 % of control and 91 % of control

SMILES: CC1CCOS(=O)O1 (stereo not drawn)
- T/C [9]: 96 % of control
- T/C [1]: 103 % of control
- T/C (dose: 40.0 mg/kg/injection, schedule: Q01DX010 (ip), vehicle: saline): 103 % of control

SMILES: C[C@]12C=CC(=O)C=C1CC[C@@H]1[C@@H]2[C@@H](O)C[C@@]2(C)[C@H]1CC[C@]2(O)C(=O)CO
- T/C [4]: 107 % of control and 116 % of control
- T/C [5]: 103 % of control and 116 % of control
- T/C [6]: 103 % of control and 120 % of control
- T/C [7]: 108 % of control and 111 % of control

SMILES: N=[N+]=CC(=O)OCC(N)C(=O)O (stereo not drawn)
- T/C [2]: 152 % of control
- T/C [3]: 165 % of control

SMILES: CCCCn1cnc2c(=S)nc[nH]c21
- T/C (dose: 16.0 mg/kg/injection, schedule: Q01DX010 (ip), vehicle: saline): 107 % of control
- T/C (dose: 32.0 mg/kg/injection, schedule: Q01DX010 (ip), vehicle: saline): 96 % of control
- T/C (dose: 64.0 mg/kg/injection, schedule: Q01DX010 (ip), vehicle: saline): 100 % of control

SMILES: O=C(Nc1cccc(C(=O)Nc2ccc(C3=NCCN3)cc2)c1)c1ccc(C2=NCCN2)cc1
- T/C (dose: 54.0 mg/kg/injection, schedule: Q01DX010 (ip), vehicle: saline): 104 % of control

SMILES: c1ccc(CCSc2ncnc3nc[nH]c23)cc1
- T/C (dose: 62.5 mg/kg/injection, schedule: Q01DX010 (ip), vehicle: saline): 88 % of control
- T/C (dose: 125.0 mg/kg/injection, schedule: Q01DX010 (ip), vehicle: saline): 88 % of control
- T/C [8]: 96 % of control
- T/C (dose: 500.0 mg/kg/injection, schedule: Q01DX010 (ip), vehicle: saline): 107 % of control

From PubChem BioAssay AID336 (DTP/NCI, 2004)
